This passage reports Winter wheat efficacy and Soybean efficacy results from patent US9814233B2, “Composition comprising a pesticide, a surfactant and an alkoxylate of 2-propyheptylamine” (BASF SE, priority 2011, dated 2017).

Experiment [1] relates to winter wheat (cultivar Cubus). In words: Greenhouse test of herbicidal activity of glyphosate spray mixtures on winter wheat. Type of experiment: in vivo. The following applies: after 21 days. The method, then:
(§1) For the greenhouse tests, winter wheat (cultivar Cubus) and soybean (cultivar Oxford) were sown or potted in loamy sandy soil to a depth of 1-2 cm. When the plants had reached a growth height of 10 to 25 cm (i.e., around 10 to 21 days after sowing), the spray mixtures were applied to the plants in a spraying cabin.
(§2) A concentrated formulation comprising glyphosate isopropylammonium in solution in water comprising the surfactants stated and amine alkoxylate A from Example 1 was diluted with deionized water and applied at a water application rate of 375 l/ha (140 g or 280 g of glyphosate/ha). The temperatures in the experimental period were between 18-35° C. During this time, the experimental plants received optimum watering, with nutrients being supplied via the water used for watering.
(§3) The herbicidal activity was evaluated by awarding scores to the treated plants (four each time) in comparison to the untreated control plants. The evaluation scale ranges from 0% to 100% activity. 100% activity means the complete death at least of those parts of the plant that are above ground.

Experiment [2] relates to soybean (cultivar Oxford). In words: Greenhouse test of herbicidal activity of glyphosate spray mixtures on soybean. Particulars: after 21 days. Type of experiment: in vivo. The method, then:
as §1, §2, §3

Where [3] appears, read: 140 g/ha glyphosate, without amine alkoxylate/surfactant.
The mark [4] stands for this setting: 280 g/ha glyphosate, without amine alkoxylate/surfactant.
The mark [5] stands for this setting: 140 g/ha glyphosate, amount 300 g/ha.
Where [6] appears, read: 280 g/ha glyphosate, amount 300 g/ha.

Regarding `CC(C)N.O=C(O)CNCP(=O)(O)O` [Without, glyphosate isopropylammonium], the Winter wheat efficacy in experiment [1] (setting [3]) stood at 53%; in experiment [1] (setting [4]), 68%. Besides, the Soybean efficacy in experiment [2] (setting [3]) and in experiment [2] (setting [4]) was 10% in each case.
On to “C10-13-alkylbenzenesulfonate, free acid [Surfactant A]”, for which the Winter wheat efficacy amounted to 84% in experiment [1] (setting [5]) and 90% in experiment [1] (setting [6]). Also, the Soybean efficacy stood at 64% in experiment [2] (setting [5]) and 71% in experiment [2] (setting [6]).
